Experimental data taken from patent publication US12077503B2, “Substituted cyclic amides and their use as herbicides” (FMC CORPORATION, priority 2015, dated 2024).

What was measured:
Format in all cases: in vivo
[1] = test system: ryegrass, Italian (Italian ryegrass, Lolium multiflorum); assay: Test A preemergence; conditions: Lolium multiflorum, pre-emergence, 240 h, preemergence, read-out: Plant response rating, Ryegrass, Italian
How it was run: (§1)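 Each rating is a visual injury score from 0 to 100 given about 10 d after treatment, judged against untreated controls kept alongside in the greenhouse. In loam soil–sand blend, seeds got a preemergence directed soil spray, while postemergence plants were 2 to 10 cm tall at spraying.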

[2] = test system: giant foxtail (Setaria faberii); assay: Test A preemergence; conditions: Setaria faberi, pre-emergence, 240 h, preemergence, read-out: Plant response rating, Foxtail, Giant
How it was run: as §1

[3] = test system: pigweed (Amaranthus retroflexus); assay: Test A preemergence; conditions: Amaranthus retroflexus, pre-emergence, 240 h, preemergence, read-out: Plant response rating, Pigweed
[4] = test system: Kochia (Kochia scoparia); assay: Test A preemergence; conditions: Bassia scoparia, pre-emergence, 240 h, preemergence, read-out: Plant response rating, Kochia
How it was run: as §1

[5] = test system: ragweed (common ragweed, Ambrosia elatior); assay: Test A preemergence; conditions: Ambrosia artemisiifolia, pre-emergence, 240 h, preemergence, read-out: Plant response rating, Ragweed
How it was run: as §1

[6] = test system: barnyardgrass (Echinochloa crus-galli); assay: Test A preemergence; conditions: Echinochloa crus-galli, pre-emergence, 240 h, preemergence, read-out: Plant response rating, Barnyardgrass
How it was run: as §1

[7] = test system: ryegrass, Italian (Italian ryegrass, Lolium multiflorum); assay: Test A postemergence; conditions: Lolium multiflorum, post-emergence, 240 h, 125 g ai/ha, postemergence; visual injury after approximately 10 d; 0 to 100 scale (0 no effect, 100 complete control); read-out: Plant response rating, Ryegrass, Italian
How it was run: as §1

[8] = test system: giant foxtail (Setaria faberii); assay: Test A postemergence; conditions: Setaria faberi, post-emergence, 240 h, 125 g ai/ha, postemergence; visual injury after approximately 10 d; 0 to 100 scale (0 no effect, 100 complete control); read-out: Plant response rating, Foxtail, Giant
How it was run: as §1

[9] = test system: pigweed (Amaranthus retroflexus); assay: Test A postemergence; conditions: Amaranthus retroflexus, post-emergence, 240 h, 125 g ai/ha, postemergence; visual injury after approximately 10 d; 0 to 100 scale (0 no effect, 100 complete control); read-out: Plant response rating, Pigweed
How it was run: as §1

[10] = test system: Galium (catchweed bedstraw, Galium aparine); assay: Test A postemergence; conditions: Galium, post-emergence, 240 h, 125 g ai/ha, postemergence; visual injury after approximately 10 d; 0 to 100 scale (0 no effect, 100 complete control); read-out: Plant response rating, Galium
How it was run: as §1

[11] = test system: wheat (Triticum aestivum); assay: Test A postemergence; conditions: Triticum aestivum, post-emergence, 240 h, 125 g ai/ha, postemergence; visual injury after approximately 10 d; 0 to 100 scale (0 no effect, 100 complete control); read-out: Plant response rating, Wheat
How it was run: as §1

[12] = test system: Kochia (Kochia scoparia); assay: Test A postemergence; conditions: Bassia scoparia, post-emergence, 240 h, 125 g ai/ha, postemergence; visual injury after approximately 10 d; 0 to 100 scale (0 no effect, 100 complete control); read-out: Plant response rating, Kochia
How it was run: as §1

[13] = test system: blackgrass (Alopecurus myosuroides); assay: Test A postemergence; conditions: Alopecurus myosuroides, post-emergence, 240 h, 125 g ai/ha, postemergence; visual injury after approximately 10 d; 0 to 100 scale (0 no effect, 100 complete control); read-out: Plant response rating, Blackgrass
How it was run: as §1

[14] = test system: ragweed (common ragweed, Ambrosia elatior); assay: Test A postemergence; conditions: Ambrosia artemisiifolia, post-emergence, 240 h, 125 g ai/ha, postemergence; visual injury after approximately 10 d; 0 to 100 scale (0 no effect, 100 complete control); read-out: Plant response rating, Ragweed
How it was run: as §1

[15] = test system: barnyardgrass (Echinochloa crus-galli); assay: Test A postemergence; conditions: Echinochloa crus-galli, post-emergence, 240 h, 125 g ai/ha, postemergence; visual injury after approximately 10 d; 0 to 100 scale (0 no effect, 100 complete control); read-out: Plant response rating, Barnyardgrass
How it was run: as §1

[16] = test system: corn (Zea mays); assay: Test A postemergence; conditions: Zea mays, post-emergence, 240 h, 125 g ai/ha, postemergence; visual injury after approximately 10 d; 0 to 100 scale (0 no effect, 100 complete control)
How it was run: as §1

[17] = 125 g ai/ha, visual rating after approx. 10 d, 0 to 100 scale where 0 is no effect and 100 is complete control
[18] = 500 g ai/ha, 0 to 100 scale, 0 = no effect, 100 = complete control

SMILES: O=C1NC[C@H](c2cscn2)[C@H]1C(=O)Nc1ccccc1F [Compound 752]
- pest or weed control at 125 g/ha [1, 17]: 20%
- pest or weed control at 500 g/ha [1, 18]: 30%
- pest or weed control at 125 g/ha [2, 17]: 90%
- pest or weed control at 500 g/ha [2, 18]: 90%
- pest or weed control at 125 g/ha [3, 17]: 20%
- pest or weed control at 500 g/ha [3, 18]: 40%
- pest or weed control at 125 g/ha [4, 17]: 60%
- pest or weed control at 500 g/ha [4, 18]: 70%
- pest or weed control at 125 g/ha [5, 17]: 40%
- pest or weed control at 500 g/ha [5, 18]: 60%
- pest or weed control at 125 g/ha [6, 17]: 30%
- pest or weed control at 500 g/ha [6, 18]: 90%
- pest or weed control at 125 g/ha [7]: 20%
- pest or weed control at 125 g/ha [8]: 50%
- pest or weed control at 125 g/ha [9]: 0%
- pest or weed control at 125 g/ha [10]: 70%
- plant injury at 125 g/ha [11]: 0%
- pest or weed control at 125 g/ha [12]: 40%
- pest or weed control at 125 g/ha [13]: 0%
- pest or weed control at 125 g/ha [14]: 20%
- pest or weed control at 125 g/ha [15]: 60%
- Corn plant response rating (crop injury, 0 = no effect, 100 = complete kill) at 125 g/ha [16]: 0%
